Literature values in patent US6348220B1, “Phenethylisothiocyanate nutraceutical compositions and methods” (Rutgers, the State University of New Jersey, priority 1999, dated 2002).

Test system: oxidation of nitrosamines from tobacco
Conditions: human smokers, PEITC from fresh watercress, urinary metabolites (Hecht et al., 1995)

S=C=NCCc1ccccc1 [PEITC, phenethyl isothiocyanate]
effect on oxidation of nitrosamines from tobacco: specifically inhibit the oxidation of nitrosamines from tobacco
